Where no end group is shown, it is not given here.

Here are results for 14 sequences from PMC5666312, “Profiling MHC II immunopeptidome of blood‐stage malaria reveals that cDC1 control the functionality of parasite‐specific CD4 T cells” (EMBO Molecular Medicine, 2017).

This assay has as its target T1, I‐A^b MHC II molecules (Mus musculus, UniProt P14434+P14483).
T1 construct: endogenous in cells; host or cells: mouse B-cell lymphoma LB27.4
T1 sequence (P14434 24-256): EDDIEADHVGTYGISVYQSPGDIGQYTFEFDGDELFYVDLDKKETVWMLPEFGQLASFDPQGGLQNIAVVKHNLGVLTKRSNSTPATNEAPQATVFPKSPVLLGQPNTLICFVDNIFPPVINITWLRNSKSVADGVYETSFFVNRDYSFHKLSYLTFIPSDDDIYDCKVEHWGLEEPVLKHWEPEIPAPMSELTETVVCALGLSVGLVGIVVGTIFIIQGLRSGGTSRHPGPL
T1 sequence (P14483 28-265): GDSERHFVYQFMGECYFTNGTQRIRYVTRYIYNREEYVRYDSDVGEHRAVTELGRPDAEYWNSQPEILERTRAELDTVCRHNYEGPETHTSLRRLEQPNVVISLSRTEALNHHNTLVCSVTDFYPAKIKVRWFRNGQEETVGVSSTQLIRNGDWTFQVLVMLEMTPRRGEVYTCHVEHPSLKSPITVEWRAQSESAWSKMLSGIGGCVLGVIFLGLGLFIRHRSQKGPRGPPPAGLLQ
Put plainly: I-A^b binding assay: inhibition of binding of a high-affinity radiolabeled peptide. Conditions: competition with radiolabeled peptide ROIV (0.1–1 nM); purified I-A^b from LB27.4 B-cell lymphoma; room temperature, 2-day incubation; six concentrations; IC50 approximates Kd. As to the method:
We used mass spectrometry to globally characterize Pb antigenic peptides presented by MHC II on the surface of DC (Fig 1A). We immunoprecipitated the MHC II molecules from a splenic DC tumor cell line called MutuDC (Fuertes Marraco et al, 2012), incubated with Pb‐parasitized RBC (pRBC). Peptide‐loaded MHC II are trimers of I‐A^bα chain, I‐A^bβ chain, and antigenic peptide, which, depending on the affinity of the loaded peptide, can remain stable in SDS without prior boiling (Natarajan et al, 1999). To ensure that our protocol allowed the pull‐down of peptide‐MHC II trimers and not just of single I‐A^bβ chain, we compared the migration of eluates with and without prior boiling, confirming that the immunoprecipitated material was SDS‐stable (Fig 1B). Although genetically very close to PbA (Otto et al, 2014), several variants of Pb causing different pathophysiological outcomes have been described (de Souza et al, 2010). Pb K173 (PbK) being the most “distant” from PbA (although SNPs were found only in 469 of […]; Otto et al, 2014), we decided to perform this analysis both with PbA and PbK pRBC. This led to the identification of a total of 372 unique I‐A^b‐eluted peptides, comprising 330 mouse sequences and 42 Pb sequences (Fig 1C, Dataset EV1), derived from 13 putative Pb antigenic proteins (Dataset EV2). In line with the modest level of polymorphisms between PbA and PbK, none of those source antigens was polymorphic. Remarkably, for seven antigens, we recovered multiple peptides containing a core of 11–16 amino acids (aa) and various N‐ or C‐terminal extensions (Dataset EV2). This feature is a typical property of MHC II ligands (Bozzacco et al, 2011; Sofron et al, 2016). For each set of nested peptides, we further analyzed the longest spanning sequence comprising all recovered sequences, for example, NALYNYSIPRPNVTSNL for ETRAMP10.2 (PBANKA_0517000) or […] for LDH (PBANKA_1340100), resulting in a consolidated list of 14 peptides (Table 1). We evaluated the I‐A^b binding affinity of these 14 peptides by quantifying their ability to inhibit binding of a high‐affinity radiolabeled peptide (Sidney et al, 2013).
Purification of I‐A^b MHC II molecules by affinity chromatography and the assay based on the inhibition of binding of a high‐affinity radiolabeled peptide to quantitatively measure peptide binding were described elsewhere (Sidney et al, 2013). Briefly, the mouse B‐cell lymphoma LB27.4 was used as a source of MHC molecules. A high‐affinity radiolabeled peptide (0.1–1 nM; peptide ROIV, sequence YAHAAHAAHAAHAAHAA) was co‐incubated at room temperature with purified MHC in the presence of a cocktail of protease inhibitors and an inhibitor peptide. Following a 2‐day incubation, MHC‐bound radioactivity was determined by capturing MHC/peptide complexes on mAb (Y3JP)‐coated Lumitrac 600 plates (Greiner Bio‐one), and measuring bound cpm using the TopCount (Packard Instrument Co) microscintillation counter. The concentration of peptide yielding 50% inhibition of the binding of the radiolabeled peptide was calculated. Under the conditions utilized, where [label] < [MHC] and IC50 ≥ [MHC], the measured IC50 values are reasonable approximations of the true Kd values. Each competitor peptide was tested at six different concentrations covering a 100,000‐fold range. The “cold” probe was used as a positive control in each experiment.
Usually IC50 stands for the concentration that gives 50% inhibition. Read a low IC50 as greater potency. In the case of APSEQTTTPEAATAASN [MSP1], the 50% inhibitory concentration (IC50) came to 1.35 µM.
Consider DNEYDFSGKAALVYGQ [ATPSYN], for which the half-inhibitory concentration (IC50) stood at 0.104 µM.
To GGSTYIAAKVNEAKD [TIM14] belongs 0.302 µM.
The figure for GINHEKYNSSQTIVSNAS [GAPDH.1] is 2.42 µM.
Consider INDRNFIATTALSSTEE [AMA1], for which the concentration for half-maximal inhibition (IC50) stood at 0.818 µM.
The sequence KILYNSAKPNSDLH [END70] came in with a half-inhibitory concentration (IC50) of 0.478 µM.
With LHASPYVAPAAAIIEMAE [LDH], the IC50 was determined as 0.11 µM.
LIPEYNEAAIMLSEKK [PDI]: the concentration for half-maximal inhibition (IC50) amounted to 0.166 µM.
As to LMTTVHASTANQLVV [GAPDH.2], the IC50 was 0.98 µM.
LSEVVIHPETNYALTG [M1] had an IC50 of 15.9 µM.
Consider NALYNYSIPRPNVTSNL [ETRAMP], for which the concentration for half-maximal inhibition (IC50) turned out to be 0.087 µM.
Sequence SGKVVEENPKAIKSGDS [EF1a] came in with an IC50 of 2.7 µM.
Regarding TEVPSLVPPTTNTSHAAPAH [MAHRP], the IC50 is 0.872 µM.
For TTLGIFRAAVPSGASTG [ENO], the IC50 worked out at 0.115 µM.
